This is an account of results in US9205064B2, “Methods for the diagnosis of oncological disorders using epimetabolic shifters, multidimensional intracellular molecules, or environmental influencers” (Berg LLC, priority 2009, dated 2015).

For test [1], the system named is Lactate Dehydrogenase (LDH). In words: Western blot of lactate dehydrogenase levels. It is filed as cell-based, human. To be noted: cancer cells. The protocol: The samples were processed and run on a 4-12% Bis-Tris Novex NuPAGE gel as described above. The gels were run, transferred and stained essentially as described above.
After transfer each blot was dried for 15-20 minutes, activated with methanol for 5 seconds, washed with water for 5 minutes, and TBST for 15 minutes. The blots were blocked for 1 hour with 5% blocking reagent in TBS-T at room temperature and then washed 3 times with TBS-T (1×-15′; 2×5′ each) and probed with the primary antibody for Lactate Dehydrogenase (abcam ab2101; polyclonal) in 5% BSA (at 1:1000 dilutions) by incubation overnight at 4 deg C. with shaking. After the overnight incubation with primary antibody for Lactate Dehydrogenase, the blots were washed 3 times with TBS-T (1×-15′; 2×5′ each) and probed with the secondary antibody (rabbit antigoat; 1:10,000 dilution) for 1 h at room temperature. After 1 h of incubation with secondary antibodies, the blots were washed 3 times with TBS-T (1×-15′; 2×5′ each) and then incubated with ECF reagent for 5 mins and then each blot scanned with 5100 Fuji Laser scanner at 25 uM resolution, 16 bit, green laser, at 400V and at 500 V. […]
The levels of LDH and PDH were determined by probing the blots successively with primary antibodies for LDH and PDH, essentially as described above. […]
(In general: A western blot detects proteins with antibodies after separation by electrophoresis.)

The subject of test [2] is Succinate Dehydrogenase B in NCIE0808 Mitopreps. Kind of test: Western blot of succinate dehydrogenase B in mitochondrial preparations. It is filed as cell-based. To be noted: mitochondrial preparations of cancer cells. The protocol:
The above blots were stripped by incubating for 30 minutes with methanol, followed by two 10 minute washes with TBS-T, then 30 minutes of incubation with Stripping buffer at 50 deg C., and followed by two washes with 100 ml or more of TBS-T for 30′ each. The blots were scanned in laser scanner to check for complete stripping. The blots were activated with methanol for 5 seconds, washed with water for 5 minutes, and TBST for 15 minutes. The blots were blocked for 1 hour with 5% blocking reagent in TBS-T at room temperature and then washed 3 times with TBS-T (1×-15′; 2×5′ each) and probed with the primary antibody for PKM2, SDHB or SDHC in 5% BSA in TBS-T by incubation overnight at 4 deg C. with gentle shaking. The primary antibody for SDHC (ABNOVA H00006391-M02; antimouse) was at 1:500 dilution. The primary antibody for SDHB was from Abcam ab4714-200; antimouse; at 1:1000 dilution. The primary antibody for Pyruvate Kinase M2 (PKM2) was from Novus Biologicals H00005315-D0IP; antirabbit; at 1:500 dilution. After incubation with primary antibodies, the membranes were washed 3 times with TBS-T (1×-15′; 2×5′ each) and probed with the secondary antibody (SDHB & C antimouse; and PKM2 antirabbit; 1:10,000 dilution) for 1 h on the orbital tilting shaker at room temperature. […]

For test [3], the system named is PaCa-2 pancreatic cancer cells. In words: SeaHorse XF analyzer OCR and ECAR. It is filed as cell-based. The text has this: Environmental influencers (e.g., MIMs or Epi-shifters) may also be identified by changes in cellular energetics. One example of the measurement of cellular energetics are the real-time measures of the consumption of molecular oxygen and/or the change in pH of the media of a cell culture. For example, the ability of a potential epi-shifter to modulate the metabolic state of a cell may be analyzed using, for example, the XF24 Analyzer (Seahorse, Inc.). This technology allows for real time detection of oxygen and pH changes in a monolayer of cells in order to evaluate the bioenergetics of a cell microenvironment. The XF24 Analyzer measures and compares the rates of oxygen consumption (OCR), which is a measure of aerobic metabolism, and extracellular acidification (ECAR), which is a measure of glycolysis, both key indicators of cellular energetics.
(SeaHorse Biosciences Inc, North Billerica, Mass.).
In contrast, cancer cells (e.g., MCF-7, PaCa-2) are inherently primed to culture at higher levels of glucose compared to normal cells due to their glycolytic phenotype for maintenance in culture.
In contrast to normal cells, cancer cells are phenotypically primed to use high glucose for ATP generation (enhanced glycolysis) resulting in higher ECAR (Table 55, ECAR for untreated normoxia 17 mM) at 21 mpH/min. […]

The structures appear in SMILES notation.

`COC1=C(OC)C(=O)C(C/C=C(\C)CC/C=C(\C)CC/C=C(\C)CC/C=C(\C)CC/C=C(\C)CC/C=C(\C)CC/C=C(\C)CC/C=C(\C)CC/C=C(\C)CCC=C(C)C)=C(C)C1=O` [Q10, Coenzyme Q10]: in test [1], the “Lactate Dehydrogenase (LDH) expression” value is on record as “reduced”. The “SDH Subunit B protein levels” value in test [2] was “increase SDH protein levels”. Further, the OCR values result in test [3] (absence and presence of stressors) is “consistent reduction”. In addition, in test [3] (normoxia, high glucose), the ECAR rates result is listed as “significant decrease”.
